Experiment in all cases: Kinase Hotspot radiolabel assay
Holding throughout (assay type): biochemical
Holding throughout (conditions): read-out: % Residual Activity

In one assay the target is T1, P38a/MAPK14 (Homo sapiens, UniProt Q16539).
T1 construct: purchased Reaction Biology Corporation (Kinase HotSpot)
In short, it runs like this:
(§1)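 Hotspot radioactive kinase assay, compound fixed at 1 µM, broad 369-kinase selectivity screen.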

For another assay, the target named is T2, PKCepsilon (Homo sapiens, UniProt Q02156).
T2 construct: purchased Reaction Biology Corporation (Kinase HotSpot)
A digest of the protocol:
as §1

For another assay, the target named is T3, MEKK1 (Homo sapiens, UniProt Q13233).
T3 construct: purchased Reaction Biology Corporation (Kinase HotSpot)
A digest of the protocol:
as §1

The next assay concerns the target T4, CAMK2d (Homo sapiens, UniProt Q13557).
T4 construct: purchased Reaction Biology Corporation (Kinase HotSpot)
A digest of the protocol:
as §1

For the next assay, the target named is T5, HGK/MAP4K4 (Homo sapiens, UniProt O95819).
T5 construct: purchased Reaction Biology Corporation (Kinase HotSpot)
In short, it runs like this:
as §1

The target of a further assay is T6, PAK1 (Homo sapiens, UniProt Q13153).
T6 construct: purchased Reaction Biology Corporation (Kinase HotSpot)
A digest of the protocol: as §1

The next assay has as its target T7, GRK3 (Homo sapiens, UniProt P35626).
T7 construct: purchased Reaction Biology Corporation (Kinase HotSpot)
In short, it runs like this:
as §1

In another assay the target is T8, CDK7/cyclin H (Homo sapiens, UniProt P50613).
T8 construct: purchased Reaction Biology Corporation (Kinase HotSpot)
A digest of the protocol: as §1

For the next assay, the target named is T9, ASK1/MAP3K5 (Homo sapiens, UniProt Q99683).
T9 construct: purchased Reaction Biology Corporation (Kinase HotSpot)
A digest of the protocol: as §1

In a further assay the target is T10, MAPKAPK3 (Homo sapiens, UniProt Q16644).
T10 construct: purchased Reaction Biology Corporation (Kinase HotSpot)
In short, it runs like this: as §1

Another assay deals with T11, BMX/ETK (Homo sapiens, UniProt P51813).
T11 construct: purchased Reaction Biology Corporation (Kinase HotSpot)
In short, it runs like this: as §1

The next assay concerns the target T12, SNARK/NUAK2 (Homo sapiens, UniProt Q9H093).
T12 construct: purchased Reaction Biology Corporation (Kinase HotSpot)
In short, it runs like this: as §1

Another assay addresses T13, FAK/PTK2 (Homo sapiens, UniProt Q05397).
T13 construct: purchased Reaction Biology Corporation (Kinase HotSpot)
In short, it runs like this:
as §1

For the next assay, the target named is T14, EPHA4 (Homo sapiens, UniProt P54764).
T14 construct: purchased Reaction Biology Corporation (Kinase HotSpot)
A digest of the protocol: as §1

A further assay has as its target T15, DRAK1/STK17A (Homo sapiens, UniProt Q9UEE5).
T15 construct: purchased Reaction Biology Corporation (Kinase HotSpot)
In short, it runs like this:
as §1

The target in a further assay is T16, SIK2 (Homo sapiens, UniProt Q9H0K1).
T16 construct: purchased Reaction Biology Corporation (Kinase HotSpot)
In short, it runs like this: as §1

Another assay has as its target T17, CK2a2 (Homo sapiens, UniProt P19784).
T17 construct: purchased Reaction Biology Corporation (Kinase HotSpot)
A digest of the protocol:
as §1

The target of a further assay is T18, TLK1 (Homo sapiens, UniProt Q9UKI8).
T18 construct: purchased Reaction Biology Corporation (Kinase HotSpot)
In short, it runs like this: as §1

For a further assay, the target named is T19, NEK8 (Homo sapiens, UniProt Q86SG6).
T19 construct: purchased Reaction Biology Corporation (Kinase HotSpot)
A digest of the protocol: as §1

The target in the next assay is T20, FGFR2 (Homo sapiens, UniProt P21802).
T20 construct: purchased Reaction Biology Corporation (Kinase HotSpot)
In short, it runs like this: as §1

T1 sequence (Q16539 whole entry): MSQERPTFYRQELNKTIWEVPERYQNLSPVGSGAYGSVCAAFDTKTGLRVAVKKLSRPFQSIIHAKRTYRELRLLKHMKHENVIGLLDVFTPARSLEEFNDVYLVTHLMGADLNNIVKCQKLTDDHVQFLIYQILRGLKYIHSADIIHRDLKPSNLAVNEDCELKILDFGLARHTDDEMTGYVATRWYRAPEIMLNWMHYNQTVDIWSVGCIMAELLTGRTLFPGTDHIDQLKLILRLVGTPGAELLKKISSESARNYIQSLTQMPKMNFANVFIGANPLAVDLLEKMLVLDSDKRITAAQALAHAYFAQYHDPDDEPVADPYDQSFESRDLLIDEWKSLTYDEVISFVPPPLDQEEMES
T4 sequence (Q13557 whole entry): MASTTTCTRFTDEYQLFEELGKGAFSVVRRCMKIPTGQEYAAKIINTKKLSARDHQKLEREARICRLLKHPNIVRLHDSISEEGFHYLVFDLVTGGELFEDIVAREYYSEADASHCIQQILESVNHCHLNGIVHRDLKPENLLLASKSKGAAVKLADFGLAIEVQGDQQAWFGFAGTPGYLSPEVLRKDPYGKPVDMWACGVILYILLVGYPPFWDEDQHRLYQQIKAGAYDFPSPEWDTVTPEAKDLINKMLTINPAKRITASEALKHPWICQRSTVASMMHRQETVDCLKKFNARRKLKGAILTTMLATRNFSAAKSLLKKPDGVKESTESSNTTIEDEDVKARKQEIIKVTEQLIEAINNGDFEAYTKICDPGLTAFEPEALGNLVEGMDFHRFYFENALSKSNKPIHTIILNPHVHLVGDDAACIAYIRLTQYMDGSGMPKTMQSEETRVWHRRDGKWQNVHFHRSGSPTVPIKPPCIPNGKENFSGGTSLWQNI
T18 sequence (Q9UKI8 whole entry): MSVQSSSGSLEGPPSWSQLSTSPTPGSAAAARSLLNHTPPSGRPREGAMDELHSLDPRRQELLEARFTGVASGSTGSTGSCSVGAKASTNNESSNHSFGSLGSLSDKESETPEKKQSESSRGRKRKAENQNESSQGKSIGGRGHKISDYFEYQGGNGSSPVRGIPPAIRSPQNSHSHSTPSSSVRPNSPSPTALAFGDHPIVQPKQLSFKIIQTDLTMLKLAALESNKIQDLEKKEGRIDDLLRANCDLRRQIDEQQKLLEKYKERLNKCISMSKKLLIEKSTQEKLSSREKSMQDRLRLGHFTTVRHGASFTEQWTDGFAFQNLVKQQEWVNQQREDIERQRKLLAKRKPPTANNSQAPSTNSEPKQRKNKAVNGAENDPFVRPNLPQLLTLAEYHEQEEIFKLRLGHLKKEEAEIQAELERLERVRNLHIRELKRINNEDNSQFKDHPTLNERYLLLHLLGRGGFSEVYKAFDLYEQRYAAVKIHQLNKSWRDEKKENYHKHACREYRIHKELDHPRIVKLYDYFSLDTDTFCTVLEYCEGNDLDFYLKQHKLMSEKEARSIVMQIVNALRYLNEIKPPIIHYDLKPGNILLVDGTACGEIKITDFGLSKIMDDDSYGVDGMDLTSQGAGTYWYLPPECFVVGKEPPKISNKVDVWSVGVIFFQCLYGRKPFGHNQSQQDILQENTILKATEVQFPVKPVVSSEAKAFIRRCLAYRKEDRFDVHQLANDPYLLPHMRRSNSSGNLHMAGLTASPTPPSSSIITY
T5 sequence (O95819 whole entry): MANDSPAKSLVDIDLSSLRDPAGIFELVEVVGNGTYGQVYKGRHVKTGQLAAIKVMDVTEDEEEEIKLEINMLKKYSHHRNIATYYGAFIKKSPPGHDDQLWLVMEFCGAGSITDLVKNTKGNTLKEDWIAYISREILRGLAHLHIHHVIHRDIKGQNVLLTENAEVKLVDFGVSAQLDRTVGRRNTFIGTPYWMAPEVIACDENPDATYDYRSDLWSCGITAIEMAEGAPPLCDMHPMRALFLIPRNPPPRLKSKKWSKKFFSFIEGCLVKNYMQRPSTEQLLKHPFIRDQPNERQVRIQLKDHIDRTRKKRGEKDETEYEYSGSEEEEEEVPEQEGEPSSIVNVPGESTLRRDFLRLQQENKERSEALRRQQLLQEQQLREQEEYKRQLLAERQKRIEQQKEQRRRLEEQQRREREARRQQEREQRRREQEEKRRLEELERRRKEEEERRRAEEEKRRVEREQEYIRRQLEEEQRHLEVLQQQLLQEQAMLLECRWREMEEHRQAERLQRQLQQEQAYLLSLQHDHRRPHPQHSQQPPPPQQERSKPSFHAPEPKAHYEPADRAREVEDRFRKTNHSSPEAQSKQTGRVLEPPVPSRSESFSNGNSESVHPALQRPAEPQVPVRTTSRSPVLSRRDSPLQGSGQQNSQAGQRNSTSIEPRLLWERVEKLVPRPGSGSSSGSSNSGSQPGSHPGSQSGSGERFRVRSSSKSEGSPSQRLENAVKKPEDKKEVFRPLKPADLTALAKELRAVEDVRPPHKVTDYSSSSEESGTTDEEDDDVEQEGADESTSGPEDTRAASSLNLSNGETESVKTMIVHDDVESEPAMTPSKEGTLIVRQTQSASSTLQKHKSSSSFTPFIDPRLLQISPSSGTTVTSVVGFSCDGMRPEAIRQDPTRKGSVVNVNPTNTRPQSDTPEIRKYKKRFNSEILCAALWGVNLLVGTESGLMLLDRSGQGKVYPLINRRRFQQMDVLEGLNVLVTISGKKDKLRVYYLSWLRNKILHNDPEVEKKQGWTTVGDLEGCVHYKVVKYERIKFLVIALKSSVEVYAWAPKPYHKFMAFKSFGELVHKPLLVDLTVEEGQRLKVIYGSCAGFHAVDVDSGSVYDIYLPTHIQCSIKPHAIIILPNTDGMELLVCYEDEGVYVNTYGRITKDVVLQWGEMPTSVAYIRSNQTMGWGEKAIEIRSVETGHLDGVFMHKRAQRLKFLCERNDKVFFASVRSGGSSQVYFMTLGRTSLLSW
T16 sequence (Q9H0K1 whole entry): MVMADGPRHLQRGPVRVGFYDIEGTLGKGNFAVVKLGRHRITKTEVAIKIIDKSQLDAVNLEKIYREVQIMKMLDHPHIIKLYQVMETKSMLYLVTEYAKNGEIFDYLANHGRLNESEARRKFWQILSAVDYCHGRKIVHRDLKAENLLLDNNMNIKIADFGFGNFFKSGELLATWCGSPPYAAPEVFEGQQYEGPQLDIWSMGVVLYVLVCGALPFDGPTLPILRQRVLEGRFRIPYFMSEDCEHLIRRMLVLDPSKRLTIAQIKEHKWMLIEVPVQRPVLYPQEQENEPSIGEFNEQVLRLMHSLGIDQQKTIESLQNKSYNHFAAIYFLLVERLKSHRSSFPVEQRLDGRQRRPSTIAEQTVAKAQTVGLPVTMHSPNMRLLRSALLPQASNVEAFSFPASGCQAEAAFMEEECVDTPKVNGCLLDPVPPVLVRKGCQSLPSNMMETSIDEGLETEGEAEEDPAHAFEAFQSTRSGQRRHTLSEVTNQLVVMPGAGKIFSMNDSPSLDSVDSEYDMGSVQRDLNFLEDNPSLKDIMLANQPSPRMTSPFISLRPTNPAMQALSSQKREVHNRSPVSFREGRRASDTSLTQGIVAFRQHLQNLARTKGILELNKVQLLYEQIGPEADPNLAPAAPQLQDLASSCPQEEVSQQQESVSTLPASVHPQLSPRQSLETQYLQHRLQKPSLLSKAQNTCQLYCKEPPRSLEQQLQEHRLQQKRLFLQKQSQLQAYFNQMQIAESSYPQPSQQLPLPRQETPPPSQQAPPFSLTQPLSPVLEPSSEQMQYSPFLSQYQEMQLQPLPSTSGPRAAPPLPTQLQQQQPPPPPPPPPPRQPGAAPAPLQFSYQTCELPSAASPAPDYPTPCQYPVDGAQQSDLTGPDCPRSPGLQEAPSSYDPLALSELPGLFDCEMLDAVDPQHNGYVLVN
T11 sequence (P51813 whole entry): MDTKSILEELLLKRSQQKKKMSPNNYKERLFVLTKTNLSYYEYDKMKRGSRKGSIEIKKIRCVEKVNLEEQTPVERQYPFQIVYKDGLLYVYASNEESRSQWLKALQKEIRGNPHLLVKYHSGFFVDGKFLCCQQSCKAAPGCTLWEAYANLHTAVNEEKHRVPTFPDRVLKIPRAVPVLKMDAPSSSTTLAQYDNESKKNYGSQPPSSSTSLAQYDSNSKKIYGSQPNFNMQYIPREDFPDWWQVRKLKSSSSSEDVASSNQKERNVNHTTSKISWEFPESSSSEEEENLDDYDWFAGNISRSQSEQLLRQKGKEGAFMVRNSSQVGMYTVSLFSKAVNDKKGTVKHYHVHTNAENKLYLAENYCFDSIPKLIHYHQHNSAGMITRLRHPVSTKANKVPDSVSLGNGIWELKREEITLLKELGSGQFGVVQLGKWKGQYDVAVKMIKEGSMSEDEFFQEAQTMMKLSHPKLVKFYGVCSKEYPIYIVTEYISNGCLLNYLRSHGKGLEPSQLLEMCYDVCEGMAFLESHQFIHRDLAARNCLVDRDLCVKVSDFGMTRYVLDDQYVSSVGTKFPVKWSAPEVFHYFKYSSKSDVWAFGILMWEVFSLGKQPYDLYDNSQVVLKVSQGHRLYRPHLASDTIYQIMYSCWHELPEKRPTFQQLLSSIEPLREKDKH
T17 sequence (P19784 whole entry): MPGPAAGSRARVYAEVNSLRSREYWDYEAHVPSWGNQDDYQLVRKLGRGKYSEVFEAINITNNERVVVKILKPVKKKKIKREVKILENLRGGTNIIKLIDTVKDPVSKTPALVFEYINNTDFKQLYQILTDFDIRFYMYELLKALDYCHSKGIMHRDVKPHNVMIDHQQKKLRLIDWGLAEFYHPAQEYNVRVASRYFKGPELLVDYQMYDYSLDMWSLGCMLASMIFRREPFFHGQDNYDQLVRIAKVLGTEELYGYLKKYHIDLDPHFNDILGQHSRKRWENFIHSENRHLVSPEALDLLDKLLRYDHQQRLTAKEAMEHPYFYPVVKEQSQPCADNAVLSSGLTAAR

On to `Cc1cnc(N[C@H]2CC[C@H](N)CC2)nc1-c1cnc2ccc(-c3ccccc3)cn12` [CDDD11-8], for which the remaining activity at 1 µM at P38a/MAPK14 turned out to be 106%; on PKCepsilon, 54.7%; at MEKK1, 103%; on CAMK2d, 17.3%; on HGK/MAP4K4 it was 32.8%; on PAK1, 106%. The remaining activity at 1 µM on GRK3 came out at 91.9%; at CDK7/cyclin H, 63.7%; at ASK1/MAP3K5 it was 90.2%; on MAPKAPK3, 91.8%; on BMX/ETK, 71.2%; at SNARK/NUAK2, 45.2%. Also, the remaining activity at 1 µM at FAK/PTK2 came to 63.3%; at EPHA4 it was 101%; at DRAK1/STK17A it was 92.5%; on SIK2, 35.8%; at CK2a2 it was 74.7%; on TLK1, 110%. Besides, the results for the remaining activity at 1 µM on NEK8 and at FGFR2 were 72.8% and 72.5%, respectively.

These data come from paper PMC8909834, “An Orally Bioavailable and Highly Efficacious Inhibitor of CDK9/FLT3 for the Treatment of Acute Myeloid Leukemia” (Cancers, 2022).
